In patent US20260274892A1, “MACROCYCLIC BROAD SPECTRUM ANTIBIOTICS” (RQx Pharmaceuticals, Inc., priority 2017, published 2026):

Each compound was assayed on Escherichia coli ATCC 25922 (assay: Minimum inhibitory concentration (MIC), CLSI broth micro-dilution, E. coli). Conditions: Escherichia coli, ATCC25922, 22 h, Table 6, cation adjusted Mueller Hinton Broth + 0.002% Tween-80, 35° C.
Type: cell-based
How it was run: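 Antibacterial potency is measured as MIC by the CLSI broth dilution method. Bacteria at OD600 0.0005 in Tween-80-supplemented cation-adjusted Mueller Hinton broth face ten twofold compound dilutions for 22 h at 35° C.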
For Cc1nc(-c2ccc(C(C)(C)C)cc2)nc(C)c1C(=O)N[C@@H](CCN)C(=O)N(C)[C@@H]1C(=O)N[C@@H](C)C(=O)N[C@H](C(=O)NCC#N)Cc2ccc3c(c2)-c2cc1ccc2OCC(O)(CN)CO3 (stereo partly drawn) [Compound 440], the MIC was 1 µM. With C[C@@H]1NC(=O)[C@@H](N(C)C(=O)[C@H](CCN)NC(=O)C2C3CC(c4ccc(C(C)(C)C)cc4)CC32)c2ccc(OCCN)c(c2)-c2cc(ccc2OCCN)C[C@@H](C(=O)NCC#N)NC1=O (stereo partly drawn) [Compound 488] the MIC was 0.5 µM. Cc1nc(-c2ccc(OC3CCCCC3)cc2)nc(C)c1C(=O)N[C@@H](CCNC(=O)NO)C(=O)N(C)[C@@H]1C(=O)N[C@@H](C)C(=O)N[C@H](C(=O)NCC#N)Cc2ccc(OCCN)c(c2)-c2cc1ccc2OCCN [Compound 512, (8S,11S,14S)-3,18-bis(2-aminoethoxy)-N-(cyanomethyl)-14-[[(2S)-2-[[2-[4-(cyclohexoxy)phenyl]-4,6-dimethyl-pyrimidine-5-carbonyl]amino]-4-(hydroxycarbamoylamino)butanoyl]-methyl-amino]-11-methyl-10,13-dioxo-9,12-diazatricyclo[13.3.1.12,6]icosa-1(18),2(20),3,5,15(19),16-hexaene-8-carboxamide] gave an MIC of 1 µM.

Same assay, conditions: Escherichia coli, ATCC25922, 22 h, Table 7, cation adjusted Mueller Hinton Broth + 0.002% Tween-80, 35° C.
Compound Cc1nc(-c2ccc(C(C)(C)C)cc2)nc(C)c1C(=O)N[C@@H](CCN)C(=O)N(C)[C@@H]1C(=O)N[C@@H](C)C(=O)N[C@H](C(=O)NCC#N)Cc2ccc(OCCN)c(c2)-c2cc1ccc2CN (racemic) [Compound 634, rac-(8S,11S,14S)-3-(2-aminoethoxy)-18-(aminomethyl)-N-(cyanomethyl)-11-methyl-14-[methyl-[rac-(2S)-4-amino-2-[[2-(4-tert-butylphenyl)-4,6-dimethyl-pyrimidine-5-carbonyl]amino]butanoyl]amino]-10,13-dioxo-9,12-diazatricyclo[13.3.1.12,6]icosa-1(18),2,4,6(20),15(19),16-hexaene-8-carboxamide] has an MIC of 0.25 µM. Compound CC(=O)Nc1cc2cc(c1O)-c1cc(ccc1OCCN)[C@H](N(C)C(=O)[C@H](CCN)NC(=O)c1c(C)nc(-c3ccc(C(C)(C)C)cc3)nc1C)C(=O)N[C@@H](C)C(=O)N[C@H](C(=O)NCC#N)C2 [Compound 559, (4S,7S,10S)-2^5-acetamido-10-((S)-4-amino-2-(2-(4-(tert-butyl)phenyl)-4,6-dimethylpyrimidine-5-carboxamido)-N-methylbutanamido)-1^6-(2-aminoethoxy)-N-(cyanomethyl)-2^6-hydroxy-7-methyl-6,9-dioxo-5,8-diaza-1,2(1,3)-dibenzenacyclodecaphane-4-carboxamide] has an MIC of 0.38 µM. Cc1nc(-c2ccc(C(C)(C)C)cc2)nc(C)c1C(=O)N[C@@H](CCN)C(=O)N(C)[C@@H]1C(=O)N[C@@H](C)C(=O)N[C@H](C(=O)NCC#N)Cc2cc(F)c(O)c(c2)-c2cc1ccc2OCCN [Compound 560, (4S,7S,10S)-10-((S)-4-amino-2-(2-(4-(tert-butyl)phenyl)-4,6-dimethylpyrimidine-5-carboxamido)-N-methylbutanamido)-1^6-(2-aminoethoxy)-N-(cyanomethyl)-2^5-fluoro-2^6-hydroxy-7-methyl-6,9-dioxo-5,8-diaza-1,2(1,3)-dibenzenacyclodecaphane-4-carboxamide] was tested, and the MIC was 0.25 µM.

Same assay, conditions: Escherichia coli, ATCC25922, 22 h, Table 8, cation adjusted Mueller Hinton Broth + 0.002% Tween-80, 35° C.
Cc1nc(-c2ccc(C(C)(C)C)cc2)ncc1C(=O)N[C@@H](CCN)C(=O)N(C)[C@@H]1C(=O)N[C@@H](C)C(=O)N[C@H](C(=O)O)Cc2ccc(OCCN)c(c2)-c2cc1ccc2OCCN (racemic) [Compound 640, rac-(8S,11S,14S)-3,18-bis(2-aminoethoxy)-11-methyl-14-[methyl-[rac-(2S)-4-amino-2-[[2-(4-tert-butylphenyl)-4-methyl-pyrimidine-5-carbonyl]amino]butanoyl]amino]-10,13-dioxo-9,12-diazatricyclo [13.3.1.12,6]icosa-1(18),2(20),3,5,15(19), 16-hexaene-8-carboxylic acid] was tested, and the MIC was 0.25 µM.

Same assay, conditions: Escherichia coli, ATCC25922, Table 6, cation adjusted Mueller Hinton Broth + 0.002% Tween-80, 35° C., 22 hours
CC(=O)NCC[C@H](NC(=O)c1c(C)nc(-c2ccc(OC3CCCCC3)cc2)nc1C)C(=O)N(C)[C@@H]1C(=O)N[C@@H](C)C(=O)N[C@H](C(=O)NCC#N)Cc2ccc(OCCN)c(c2)-c2cc1ccc2OCCN [Compound 496, (8S,11S,14S)-14-[[(2S)-4-acetamido-2-[[2-[4-(cyclohexoxy)phenyl]-4,6-dimethyl-pyrimidine-5-carbonyl]amino]butanoyl]-methyl-amino]-3,18-bis(2-aminoethoxy)-N-(cyanomethyl)-11-methyl-10,13-dioxo-9,12-diazatricyclo[13.3.1.12,6]icosa-1(18),2(20),3,5,15(19),16-hexaene-8-carboxamide] showed an MIC of 1 µM. With Cc1nc(-c2ccc(OC3CCCCC3)cc2)nc(C)c1C(=O)N[C@@H](CC(N)=O)C(=O)N(C)[C@@H]1C(=O)N[C@@H](C)C(=O)N[C@H](C(=O)NCC#N)Cc2ccc(OCCN)c(c2)-c2cc1ccc2OCCN [Compound 506, (2S)-N-[(7S,10S,13S)-3,18-bis(2-aminoethoxy)-13-(cyanomethylcarbamoyl)-10-methyl-8,11-dioxo-9,12-diazatricyclo[13.3.1.12,6]icosa-1(19),2,4,6(20),15,17-hexaen-7-yl]-2-[[2-[4-(cyclohexoxy)phenyl]-4,6-dimethyl-pyrimidine-5-carbonyl]amino]-N-methyl-butanediamide] the MIC was 0.83 µM. For CC[C@H](NC(=O)c1c(C)nc(-c2ccc(OC3CCCCC3)cc2)nc1C)C(=O)N[C@@H](CCN)C(=O)N(C)[C@@H]1C(=O)N[C@@H](C)C(=O)N[C@H](C(=O)NCC#N)Cc2ccc(OCCN)c(c2)-c2cc1ccc2OCCN [Compound 510, (8S,11S,14S)-14-[[(2S)-4-amino-2-[[(2S)-2-[[2-[4-(cyclohexoxy)phenyl]-4,6-dimethyl-pyrimidine-5-carbonyl]amino]butanoyl]amino]butanoyl]-methyl-amino]-3,18-bis(2-aminoethoxy)-N-(cyanomethyl)-11-methyl-10,13-dioxo-9,12-diazatricyclo[13.3.1.12,6]icosa-1(18),2(20),3,5,15(19),16-hexaene-8-carboxamide], the MIC was 1.5 µM. Cc1nc(-c2ccc(OC3CCCCC3)cc2)nc(C)c1C(=O)N[C@@H](CCNC(=O)CO)C(=O)N(C)[C@@H]1C(=O)N[C@@H](C)C(=O)N[C@H](C(=O)NCC#N)Cc2ccc(OCCN)c(c2)-c2cc1ccc2OCCN [Compound 511, (8S,11S,14S)-3,18-bis(2-aminoethoxy)-N-(cyanomethyl)-14-[[(2S)-2-[[2-[4-(cyclohexoxy)phenyl]-4,6-dimethyl-pyrimidine-5-carbonyl]amino]-4-[(2-hydroxyacetyl)amino]butanoyl]-methyl-amino]-11-methyl-10,13-dioxo-9,12-diazatricyclo[13.3.1.12,6]icosa-1(18),2(20),3,5,15(19),16-hexaene-8-carboxamide] showed an MIC of 2 µM.

Same assay, conditions: Escherichia coli, ATCC25922, Table 7, cation adjusted Mueller Hinton Broth + 0.002% Tween-80, 35° C., 22 hours
Work on COc1cc(O)c2cc1-c1cc(ccc1OCCN)[C@H](N(C)C(=O)[C@H](CCN)NC(=O)c1c(C)nc(-c3ccc(C(C)(C)C)cc3)nc1C)C(=O)N[C@@H](C)C(=O)N[C@H](C(=O)NCC#N)C2 (racemic) [Compound 625, rac-(8S,11S,14S)-18-(2-aminoethoxy)-N-(cyanomethyl)-5-hydroxy-3-methoxy-11-methyl-14-[methyl-[rac-(2S)-4-amino-2-[[2-(4-tert-butylphenyl)-4,6-dimethyl-pyrimidine-5-carbonyl]amino]butanoyl]amino]-10,13-dioxo-9,12-diazatricyclo[13.3.1.12,6]icosa-1(18),2(20),3,5,15(19),16-hexaene-8-carboxamide] yielded an MIC of 0.38 µM. Cc1nc(-c2ccc(C(C)(C)C)cc2)nc(C)c1C(=O)N[C@@H](CCN)C(=O)N(C)[C@@H]1C(=O)N[C@@H](C)C(=O)N[C@H](C(=O)NCC#N)Cc2cc(c(O)cc2CN)-c2cc1ccc2OCCN (racemic) [Compound 626, rac-(8S,11S,14S)-18-(2-aminoethoxy)-5-(aminomethyl)-N-(cyanomethyl)-3-hydroxy-11-methyl-14-[methyl-[rac-(2S)-4-amino-2-[[2-(4-tert-butylphenyl)-4,6-dimethyl-pyrimidine-5-carbonyl]amino]butanoyl]amino]-10,13-dioxo-9,12-diazatricyclo[13.3.1.12,6]icosa-1(18),2(20),3,5,15(19),16-hexaene-8-carboxamide] was tested, and the MIC was 0.25 µM. COc1cc(OCCN)c2cc1-c1cc(ccc1OCCN)[C@H](N(C)C(=O)[C@H](CNS(N)(=O)=O)NC(=O)c1c(C)nc(-c3ccc(C(C)(C)C)cc3)nc1C)C(=O)N[C@@H](C)C(=O)N[C@H](C(=O)NCC#N)C2 (racemic) [Compound 627, rac-(8S,11S,14S)-5,18-bis(2-aminoethoxy)-N-(cyanomethyl)-3-methoxy-11-methyl-14-[methyl-[rac-(2S)-2-[[2-(4-tert-butylphenyl)-4,6-dimethyl-pyrimidine-5-carbonyl]amino]-3-(sulfamoylamino)propanoyl]amino]-10,13-dioxo-9,12-diazatricyclo[13.3.1.12,6]icosa-1(18),2(20),3,5,15(19),16-hexaene-8-carboxamide] showed an MIC of 0.5 µM. Work on Cc1nc(-c2ccc(C(C)(C)C)cc2)nc(C)c1C(=O)N[C@@H](CNS(N)(=O)=O)C(=O)N(C)[C@@H]1C(=O)N[C@@H](C)C(=O)N[C@H](C(=O)NCC#N)Cc2cc(c(O)cc2OCCN)-c2cc1ccc2OCCN (racemic) [Compound 628, rac-(8S,11S,14S)-5,18-bis(2-aminoethoxy)-N-(cyanomethyl)-3-hydroxy-11-methyl-14-[methyl-[rac-(2S)-2-[[2-(4-tert-butylphenyl)-4,6-dimethyl-pyrimidine-5-carbonyl]amino]-3-(sulfamoylamino)propanoyl]amino]-10,13-dioxo-9,12-diazatricyclo[13.3.1.12,6]icosa-1(18),2(20),3,5,15(19),16-hexaene-8-carboxamide] yielded an MIC of 0.44 µM.
